According to patent US9149038B2, “4-amino-6-(heterocyclic)picolinates and 6-amino-2-(heterocyclic)pyrimidine-4-carboxylates and their use as herbicides” (Dow AgroSciences LLC, priority 2013, dated 2015):
Read-outs that look alike come from different tables or passages of the source.

Columns and labels:
[1] = test system: Key Broadleaf Weed and Crop Species; assay: Post-Emergent Test II: postemergent herbicidal activity, visual rating after 14 d (Table 7); type: in vivo; settings: post-emergence, 336 h; for pest or weed control at 35 g/ha: 35 g ai/ha; for pest or weed control at 70 g/ha: 70 g ai/ha; for pest or weed control at 140 g/ha: 140 g ai/ha
Summary of the method: (§1)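 Plants were raised in a greenhouse for 7-21 d and treated once at the first or second true leaf stage. Compounds, dissolved in 97:3 acetone:DMSO then diluted into an aqueous acetone/isopropanol/crop oil/Triton X-155 carrier, were applied by overhead track sprayer at 187 L/ha. After 14 d with subirrigation, injury was scored visually from 0 (none) to 100 (complete kill).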

[2] = test system: Key Grass and Sedge Weeds as well as Grass Crops; assay: Post-Emergent Test II: postemergent herbicidal activity, visual rating after 14 d (Table 8); type: in vivo; settings: post-emergence, 336 h; for pest or weed control at 35 g/ha: 35 g ai/ha; for pest or weed control at 70 g/ha: 70 g ai/ha; for pest or weed control at 140 g/ha: 140 g ai/ha
Summary of the method: as §1

[3] = ABUTH: velvetleaf (Abutilon theophrasti), read-out: Visual Growth Reduction (%) 14 Days After Application ABUTH
[4] = AMARE: redroot pigweed (Amaranthus retroflexus), read-out: Visual Growth Reduction (%) 14 Days After Application AMARE
[5] = BRSNN: oilseed rape, canola (Brassica napus), read-out: Visual Growth Reduction (%) 14 Days After Application BRSNN
[6] = CHEAL: lambsquarters (Chenopodium album), read-out: Visual Growth Reduction (%) 14 Days After Application CHEAL
[7] = EPHHL: wild poinsettia (Euphorbia heterophylla), read-out: Visual Growth Reduction (%) 14 Days After Application EPHHL
[8] = HELAN: sunflower (Helianthus annuus), read-out: Visual Growth Reduction (%) 14 Days After Application HELAN
[9] = barnyardgrass (Echinochloa crus-galli), read-out: Visual Growth Reduction (%) 14 Days After Application, ECHCG
[10] = giant foxtail (Setaria faberi), read-out: Visual Growth Reduction (%) 14 Days After Application, SETFA
[11] = maize, corn (Zea mays), read-out: Visual Growth Reduction (%) 14 Days After Application, ZEAMX
[12] = rice (Oryza sativa), read-out: Visual Growth Reduction (%) 14 Days After Application, ORYSA
[13] = wheat, spring (Triticum aestivum), read-out: Visual Growth Reduction (%) 14 Days After Application, TRZAS
[14] = yellow nutsedge (Cyperus esculentus), read-out: Visual Growth Reduction (%) 14 Days After Application, CYPES

COC(=O)c1nc(-c2ccc(Cl)c3c2OC(F)(F)O3)nc(N)c1OC [Compound 95] was tested, and the pest or weed control at 35 g/ha [1, 3] was 45 to 59%, the pest or weed control at 70 g/ha [1, 3] was 75 to 84% and the pest or weed control at 140 g/ha [1, 3] was 75 to 84%. It also gave a pest or weed control at 35 g/ha [1, 4] of 95 to 100%, a pest or weed control at 70 g/ha [1, 4] of 95 to 100% and a pest or weed control at 140 g/ha [1, 4] of 95 to 100%. For the same compound, the pest or weed control at 35 g/ha [1, 5] was 45 to 59%, the pest or weed control at 70 g/ha [1, 5] was 45 to 59% and the pest or weed control at 140 g/ha [1, 5] was 60 to 74%. It also gave a pest or weed control at 35 g/ha [1, 6] of 95 to 100%, a pest or weed control at 70 g/ha [1, 6] of 95 to 100% and a pest or weed control at 140 g/ha [1, 6] of 95 to 100%. For the same compound, the pest or weed control at 35 g/ha [1, 7] was 0 to 29%, the pest or weed control at 70 g/ha [1, 7] was 0 to 29% and the pest or weed control at 140 g/ha [1, 7] was 0 to 29%. The pest or weed control at 35 g/ha [1, 8] was 95 to 100%, the pest or weed control at 70 g/ha [1, 8] was 95 to 100% and the pest or weed control at 140 g/ha [1, 8] was 95 to 100%. It also gave a pest or weed control at 35 g/ha [2, 9] of 0 to 29%, a pest or weed control at 70 g/ha [2, 9] of 0 to 29% and a pest or weed control at 140 g/ha [2, 9] of 0 to 29%. The pest or weed control at 35 g/ha [2, 10] was 0 to 29%, the pest or weed control at 70 g/ha [2, 10] was 0 to 29% and the pest or weed control at 140 g/ha [2, 10] was 0 to 29%. For the same compound, the pest or weed control at 35 g/ha [2, 11] was 0 to 29%, the pest or weed control at 70 g/ha [2, 11] was 0 to 29% and the pest or weed control at 140 g/ha [2, 11] was 0 to 29%. The pest or weed control at 35 g/ha [2, 12] was 0 to 29%, the pest or weed control at 70 g/ha [2, 12] was 0 to 29% and the pest or weed control at 140 g/ha [2, 12] was 0 to 29%. For the same compound, the pest or weed control at 35 g/ha [2, 13] was 0 to 29%, the pest or weed control at 70 g/ha [2, 13] was 0 to 29% and the pest or weed control at 140 g/ha [2, 13] was 0 to 29%. It also gave a pest or weed control at 35 g/ha [2, 14] of 0 to 29%, a pest or weed control at 70 g/ha [2, 14] of 45 to 59% and a pest or weed control at 140 g/ha [2, 14] of 45 to 59%.
